Test results reported in article PMC5428521, “Identification of a Novel, Small Molecule Partial Agonist for the Cyclic AMP Sensor, EPAC1” (Scientific Reports, 2017).

Assays:
EPAC1-CNB = target: T1, EPAC1-CNB (Homo sapiens, UniProt O95398); assay: Ligand observed NMR (1D and waterLOGSY) with EPAC1-CNB; format: binding; settings: compound 50 µM, protein 2.5 µM
T1 construct: EPAC1-CNB (amino acids 169–318 of EPAC1); made in house; host or cells: BL-21 Escherichia coli (pGEX-6P-1)
T1 sequence (O95398 169-318 isoform O95398-3): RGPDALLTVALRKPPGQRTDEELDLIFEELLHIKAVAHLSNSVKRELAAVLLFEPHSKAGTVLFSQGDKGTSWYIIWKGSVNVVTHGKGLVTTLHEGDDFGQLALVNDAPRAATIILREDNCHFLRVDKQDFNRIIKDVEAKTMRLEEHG
Description: Given that I942 seems to exert selective agonist properties against EPAC1, but not EPAC2, we next sought to validate whether our isolated ligands can interact with EPAC1 and EPAC2. Ligand observed nuclear magnetic resonance (NMR) is a valuable tool for the identification and validation of small molecule ligands. We therefore used one dimensional proton (1D) and water-ligand observed by gradient spectroscopy (waterLOGSY) NMR to confirm the ability of I942 and I178 to bind to the purified CNBs of EPAC1 and EPAC2, in comparison with the commercially available EPAC1 antagonist, ESI-09[32]. In order to assess ligand/CNB interaction, 1D and waterLOGSY experiments were performed on each compound (50 µM) in the presence or absence of 2.5 µM EPAC-CNB. In the absence of protein, each test compound produced a well-resolved 1D spectrum and a region of each spectrum was chosen to display distinctive spectral peaks originating from the ligand (Fig. 6). In the absence of protein, the corresponding waterLOGSY peaks were small, or absent, due to the negligible signal produced by saturation transfer from water to the freely tumbling small molecule. […] In waterLOGSY spectra, protein-mediated saturation transfer can only occur if the protein-ligand complex has a substantial lifetime. […]
(A) One dimensional proton (1D) and waterLOGSY (WL) spectra were performed on samples containing hit compound I942 (50 µM) in the absence and presence of EPAC1-CNB, EPAC2-CNB or GST alone, as indicated (2.5 µM). […] Interaction between compound and protein was assessed through comparison of the compound alone and protein-compound sample spectra. […]
All NMR spectra were recorded on a Bruker AVANCE IIIHD 600 spectrometer equipped with a TCI cryoprobe at 285 K. Test compounds were prepared in deuterated DMSO and diluted to given experimental concentrations in NMR buffer (20 mM Na2PO4, pH 7.0, 50 mM NaCl, 0.1% (w/v) NaN3, 5% (v/v) D2O) with a final DMSO concentration below 0.1%. […] One dimensional proton (1D) and waterLOGSY spectra were recorded for all compounds tested, using pulse sequences as previously described. […]

protein kinase A (PKA) = assay: PKA kinase activity assay in HEK293T cell extracts; format: biochemical; settings: 1 mM cAMP, compound 0.1 to 100 µM
Description: PKA activity was measured directly in cell extracts using the PKA Kinase Activity Assay Kit (Abcam) following the manufacturer's instructions. […] Cells were washed in ice-cold PBS containing phosphatase inhibitors, scrapped into Eppendorf tubes and centrifuged at 200 × g at 4 °C for 5 minutes. Supernatants were discarded and the cell pellet was re-suspended in Complete Lysis Buffer containing 1 mM DTT, 1 mM PMSF and protease inhibitor cocktail (Roche) and then incubated for 10 minutes on ice (on the rocking platform) followed by vortex and centrifugation at […] at 4 °C for 20 minutes. Cell extracts were then transferred to fresh Eppendorf tubes, assayed for protein content and then stored at -80 °C. […] Next, 10 μl of ATP was added to each well and incubated at 30 °C for 90 min, with gentle shaking. The reaction was stopped by aspirating the contents of each well and then 40 μl of PKA phosphospecific substrate antibody was added to each well and then the plate was covered with plastic wrap and incubated at room temperature for 60 min (with gentle shaking every 20 min). […] Fluorescence was then measured at 480/530 nm. […] PKA activity was then measured in the cell extracts using an ELISA assay according to the manufactures instructions. […]

| SMILES | NMR interaction (EPAC1-CNB) | effect on PKA activity induced by cAMP (protein kinase A (PKA)) |
| --- | --- | --- |
| Cc1ccc(S(=O)(=O)NC(=O)COc2ccc3ccccc3c2)c(C)c1 [I942, N-(2,4-dimethylbenzenesulfonyl)-2-(naphthalen-2-yloxy)acetamide] | Strong, Specific Interaction | did not significantly affect PKA activity |
| O=C(COc1ccc2ccccc2c1)NS(=O)(=O)c1ccccc1 [I178, N-(benzenesulfonyl)-2-(naphthalen-2-yloxy)acetamide] | Strong, Specific Interaction | – |
